How the values were obtained:
[1] = biological target: T1, EmrE (Escherichia coli, UniProt P23895); assay: SSME transport with purified EmrE in proteoliposomes, empty liposome control; assay type: biochemical; parameters: WT-EmrE in POPC proteoliposomes
[2] = biological target: T1, EmrE; assay: ITC (pH […] ºC); NMR pH titration; ZZ-exchange NMR; assay type: binding; parameters: WT EmrE, antiparallel homodimer, in DMPC/DHPC isotropic bicelles
[3] = biological target: Glu14 (UniProt position 14, GAILAEVIGTT); assay: NMR; settings: 45 °C; not stated (no added salt beyond the buffer components); 20 mM sodium acetate, 50 mM Mes, 50 mM Mops, 100 mM bicine, 2 mM TCEP, 0.01% sodium azide; Saturated with 2H-dTPP2+ (at least 4x the EmrE monomer concentration). Alternating access is in slow exchange, and the substrate is associated asymmetrically with subunit A.

T1 sequence (P23895 whole entry): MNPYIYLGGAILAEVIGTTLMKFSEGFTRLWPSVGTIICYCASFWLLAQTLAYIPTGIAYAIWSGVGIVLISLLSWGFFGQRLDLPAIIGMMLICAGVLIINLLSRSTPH

CC[n+]1c(-c2ccccc2)c2cc(N)ccc2c2ccc(N)cc21 [Eth+, ethidium]
SSME transport with purified EmrE in proteoliposomes, empty liposome control [1]: observed signal under these conditions is transport dependent on the protein as empty controls show minimal signal

C[n+]1ccc(-c2cc[n+](C)cc2)cc1 [MV2+, methyl viologen]
SSME transport with purified EmrE in proteoliposomes, empty liposome control [1]: Addition of the substrate gradient resulted in increased net flux compared with drug-free conditions, consistent with net symport

c1ccc([P+](c2ccccc2)(c2ccccc2)c2ccc([P+](c3ccccc3)(c3ccccc3)c3ccccc3)cc2)cc1 [dTPP2+, 1,4-phenylenebis(triphenylphosphonium) bromide]
Kd [2]: 8.1 ± 0.4 µM

c1ccc(C(c2ccccc2)(c2ccccc2)c2ccc([P+](c3ccccc3)(c3ccccc3)c3ccccc3)cc2)cc1 [dTPP+, triphenyl[4-(triphenylmethyl)phenyl]phosphonium iodide]
Kd [2]: 9.3 ± 0.3 µM

EmrE (small multidrug resistance transporter) (Escherichia coli)
pKa [3]: 6.2 ± 0.1

Reference: publication PMC9860125 (The Journal of Biological Chemistry, 2022)
